Results published in PubChem BioAssay AID248 (DTP/NCI, 2004).
Values joined by “and” are separate entries in the source; they are usually repeats but may differ in a detail not shown here. Equal values may be shown once. Inconclusive results and toxic doses are left out. No stated cut-off is given here; in the data, active means T/C of 150% or more; inactive means T/C below 125%.

System: L1210 leukemia ip in BDF1 mice, survival T/C
Test: NCI In Vivo Anticancer Drug Screen. Data for tumor model L1210 Leukemia (intraperitoneal) in B6D2F1 (BDF1) mice
Conditions: endpoint: mean survival time, higher = longer survival
In short: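 Antitumor effect is assessed in tumor-bearing animals. Survival in the compound arm is compared with a vehicle-dosed control arm and expressed as their quotient.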

[1] = dose: 100.0 mg/kg/injection, schedule: Q04DX002 (ip), vehicle: Klucel (hydroxypropylcellulose) (HPC)
[2] = dose: 200.0 mg/kg/injection, schedule: Q04DX002 (ip), vehicle: Klucel (hydroxypropylcellulose) (HPC)
[3] = dose: 50.0 mg/kg/injection, schedule: Q01DX001 (ip), vehicle: saline
[4] = dose: 100.0 mg/kg/injection, schedule: Q01DX001 (ip), vehicle: saline
[5] = dose: 200.0 mg/kg/injection, schedule: Q01DX001 (ip), vehicle: saline
[6] = dose: 400.0 mg/kg/injection, schedule: Q01DX001 (ip), vehicle: saline
[7] = dose: 100.0 mg/kg/injection, schedule: Q04DX003 (ip), vehicle: Klucel (hydroxypropylcellulose) (HPC)
[8] = dose: 25.0 mg/kg/injection, schedule: Q01DX009 (ip), vehicle: saline with Tween-80
[9] = dose: 100.0 mg/kg/injection, schedule: Q01DX001 (ip), vehicle: saline with Tween-80
[10] = dose: 200.0 mg/kg/injection, schedule: Q01DX001 (ip), vehicle: saline with Tween-80

Measured: T/C

Cc1cc(Cl)ccc1OC(=O)Nc1ccc(Cl)cc1
inactive: dose: 100.0 mg/kg/injection, schedule: Q01DX001 (ip), vehicle: carboxymethylcellulose (CMC) 103 % of control | dose: 100.0 mg/kg/injection, schedule: Q01DX009 (ip), vehicle: carboxymethylcellulose (CMC) 95 % of control and 101 % of control | [1] 98 % of control | dose: 100.0 mg/kg/injection, schedule: Q04DX002 (ip), vehicle: carboxymethylcellulose (CMC) 96 % of control and 90 % of control | dose: 200.0 mg/kg/injection, schedule: Q01DX001 (ip), vehicle: carboxymethylcellulose (CMC) 111 % of control | dose: 200.0 mg/kg/injection, schedule: Q01DX009 (ip), vehicle: carboxymethylcellulose (CMC) 97 % of control and 111 % of control | [2] 92 % of control | dose: 200.0 mg/kg/injection, schedule: Q04DX002 (ip), vehicle: carboxymethylcellulose (CMC) 94 % of control and 97 % of control | dose: 400.0 mg/kg/injection, schedule: Q01DX001 (ip), vehicle: carboxymethylcellulose (CMC) 98 % of control | dose: 400.0 mg/kg/injection, schedule: Q01DX009 (ip), vehicle: carboxymethylcellulose (CMC) 97 % of control and 86 % of control | dose: 400.0 mg/kg/injection, schedule: Q04DX002 (ip), vehicle: Klucel (hydroxypropylcellulose) (HPC) 106 % of control | dose: 400.0 mg/kg/injection, schedule: Q04DX002 (ip), vehicle: carboxymethylcellulose (CMC) 94 % of control and 90 % of control

CC[Si](CC)(CC)O[Si](CC)(CC)CC
inactive: dose: 100.0 mg/kg/injection, schedule: Q04DX002 (ip), vehicle: saline 102 % of control | dose: 200.0 mg/kg/injection, schedule: Q04DX002 (ip), vehicle: saline 94 % of control | dose: 400.0 mg/kg/injection, schedule: Q04DX002 (ip), vehicle: saline 97 % of control

CC(O)(c1ccccc1)C(C(=O)O)c1ccccc1 (configuration not stated)
inactive: [3] 103 % of control | [4] 103 % of control | [5] 103 % of control | [6] 97 % of control

O=S(=O)(Nc1ccc2ccccc2c1)c1cccc2cccnc12
inactive: [7] 98 % of control | dose: 200.0 mg/kg/injection, schedule: Q04DX003 (ip), vehicle: Klucel (hydroxypropylcellulose) (HPC) 93 % of control | dose: 400.0 mg/kg/injection, schedule: Q04DX003 (ip), vehicle: Klucel (hydroxypropylcellulose) (HPC) 95 % of control

NC(=O)C(=O)NCCCCN1CC1
inactive: dose: 12.5 mg/kg/injection, schedule: Q04DX003 (ip), vehicle: Klucel (hydroxypropylcellulose) (HPC) 97 % of control | dose: 25.0 mg/kg/injection, schedule: Q04DX003 (ip), vehicle: Klucel (hydroxypropylcellulose) (HPC) 97 % of control | dose: 50.0 mg/kg/injection, schedule: Q04DX003 (ip), vehicle: Klucel (hydroxypropylcellulose) (HPC) 102 % of control | [7] 114 % of control

CN(C)c1ccc(/C=N/NC(=O)CCCCCCCCC(=O)N/N=C/c2ccc(N(C)C)cc2)cc1
inactive: dose: 12.5 mg/kg/injection, schedule: Q01DX009 (ip), vehicle: saline with Tween-80 101 % of control and 104 % of control | [8] 94 % of control and 97 % of control | dose: 50.0 mg/kg/injection, schedule: Q04DX003 (ip), vehicle: saline with Tween-80 98 % of control | [9] 100 % of control | dose: 100.0 mg/kg/injection, schedule: Q04DX002 (ip), vehicle: saline with Tween-80 101 % of control and 104 % of control | dose: 100.0 mg/kg/injection, schedule: Q04DX003 (ip), vehicle: saline with Tween-80 93 % of control | [10] 100 % of control | dose: 200.0 mg/kg/injection, schedule: Q04DX002 (ip), vehicle: saline with Tween-80 101 % of control and 102 % of control | dose: 400.0 mg/kg/injection, schedule: Q04DX002 (ip), vehicle: saline with Tween-80 108 % of control

O=C(O)C1CC(c2ccccc2)=C(c2ccccc2)CC1C(=O)O (configuration not stated)
inactive: dose: 50.0 mg/kg/injection, schedule: Q04DX002 (ip), vehicle: Klucel (hydroxypropylcellulose) (HPC) 105 % of control | [1] 102 % of control and 114 % of control and 100 % of control | [2] 102 % of control and 100 % of control

CC1CC([P+](c2ccccc2)(c2ccccc2)c2ccccc2)=NN1 (configuration not stated)
inactive: dose: 25.0 mg/kg/injection, schedule: Q04DX003 (ip), vehicle: saline 120 % of control | dose: 50.0 mg/kg/injection, schedule: Q04DX003 (ip), vehicle: saline 113 % of control

Cc1cc(C(=O)O)ccc1S(=O)(=O)F
inactive: [8] 96 % of control | dose: 50.0 mg/kg/injection, schedule: Q01DX009 (ip), vehicle: saline with Tween-80 102 % of control | dose: 100.0 mg/kg/injection, schedule: Q01DX009 (ip), vehicle: saline with Tween-80 92 % of control and 100 % of control

CCn1c[n+](-c2ccccc2)cn1
inactive: [4] 106 % of control

OC/C=C/Cl
inactive: dose: 25.0 mg/kg/injection, schedule: Q01DX001 (ip), vehicle: acetone 106 % of control | dose: 50.0 mg/kg/injection, schedule: Q01DX001 (ip), vehicle: acetone 97 % of control | dose: 100.0 mg/kg/injection, schedule: Q01DX001 (ip), vehicle: acetone 98 % of control

Nc1ccc(I)c([N+](=O)[O-])c1
inactive: dose: 100.0 mg/kg/injection, schedule: Q04DX003 (ip), vehicle: acetone 87 % of control | dose: 200.0 mg/kg/injection, schedule: Q04DX003 (ip), vehicle: acetone 92 % of control | dose: 400.0 mg/kg/injection, schedule: Q04DX003 (ip), vehicle: acetone 101 % of control

O=C(O)C(=O)Cc1c(Cl)cccc1[N+](=O)[O-]
inactive: [3] 104 % of control | [4] 101 % of control | [5] 106 % of control | [6] 104 % of control

CC(=O)N(Cc1ccccc1)C1C(OCc2ccccc2)OC(CO)C(O)C1OCc1ccccc1 (configuration not stated)
inactive: [9] 89 % of control | [10] 96 % of control | dose: 400.0 mg/kg/injection, schedule: Q01DX001 (ip), vehicle: saline with Tween-80 100 % of control
